The nature of data set [1]: Binding affinity to Dengue virus NS2B-NS3 protease assessed as inhibition constant.
The target of data set [2] is Kappa-type opioid receptor (Mus musculus, UniProt P33534). Briefly: Displacement of [3H]DPN from mouse KOR stably expressed in HEK293T cell membrane assessed as inhibition constant by radioligand binding assay. It counts as cell membranes. For orientation: Displacement assays read how much labelled ligand stays bound in the presence of the test substance.
Data set [3] in a line: Stability of the compound assessed as half life at pH 6. It counts as physicochemical. Conditions: buffer.
The nature of data set [4]: Stability in rat plasma assessed as half life measured upto 120 mins. It counts as ADME, cell-free.
A short description of data set [5]: Stability in rat heart assessed as half life measured upto 120 mins. It counts as ADME, tissue-based.

Starred links: 1 amine or outer side, 2 acyl side, 3 side chain; linkers in the order of their positions; H or OH if unused. Positions of bridges follow the written chain, without caps; N, C: chain ends. Non-standard residues stand in square brackets, D forms with d. Residues, ends and D or L forms follow the SMILES beside them. *: point of attachment. DAMPA = CN(Cc1cnc2nc(N)nc(N)c2n1)c1ccc(C(=O)*)cc1; γGlu = O=C(O)[C@H](CCC(=O)[*:2])N[*:1]; Pen = CC(C)(S)[C@H](N)C(=O)O

Kappa-type opioid receptor, sequence (P33534 whole entry): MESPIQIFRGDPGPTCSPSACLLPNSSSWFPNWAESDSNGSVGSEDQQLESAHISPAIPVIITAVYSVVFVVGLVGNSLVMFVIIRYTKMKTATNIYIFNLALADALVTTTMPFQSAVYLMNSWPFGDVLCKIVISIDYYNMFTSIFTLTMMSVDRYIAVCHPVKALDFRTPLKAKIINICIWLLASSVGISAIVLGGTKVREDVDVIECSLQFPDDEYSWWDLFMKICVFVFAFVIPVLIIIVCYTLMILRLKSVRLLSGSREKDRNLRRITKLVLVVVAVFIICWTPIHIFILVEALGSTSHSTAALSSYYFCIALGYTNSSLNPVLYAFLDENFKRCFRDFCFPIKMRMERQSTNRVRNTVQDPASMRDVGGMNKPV

For the compound `CCCC[C@@H](NC(=O)[C@H](CCCCN)NC(=O)[C@H](CCCNC(=N)N)NC(=O)c1ccc(/C=C(\C#N)C(=O)NC2CC2)cc1)C(N)=O`, in data set [1], the Ki turned out to be 4900 nM.

For `C=CCN1CCC23c4c5ccc(O)c4O[C@H]2[C@H](NC(=O)[C@@H](Cc2ccccc2)NC(=O)[C@H](NC(=O)[C@@H]2CSCC(=O)N[C@H](Cc4ccc(O)cc4)C(=O)N[C@H](C)C(=O)N[C@@H](Cc4ccc(O)cc4)C(=O)N[C@@H]([C@H](C)O)C(=O)N[C@@H]([C@H](C)O)C(=O)N2)[C@@H](C)O)CCC3C1C5` (stereo partly specified), the Ki in data set [2] worked out at 3.9 nM. Consider `CC(C)C[C@@H]1NC(=O)[C@H](C(C)C)NC(=O)[C@H](CO)NC(=O)CNC(=O)CNC(=O)[C@H](CCCNC(=N)N)NC(=O)[C@@H]2CCCN2C(=O)[C@@H](NC(=O)CC[C@H](NC(=O)c2ccc(N(C)Cc3cnc4nc(N)nc(N)c4n3)cc2)C(=O)O)C(C)(C)SSC[C@@H](C(=O)O)NC(=O)CNC(=O)[C@H]([C@@H](C)O)NC(=O)[C@H](C(C)C)NC1=O` ({DAMPA-γGlu}-[Pen]PRGGSVLVTGC-OH; disulfide 1-12), for which the half-life amounted to 770 min in data set [3], 43.8 min in data set [4] and 38.1 min in data set [5].

Turning to `C[C@H](O)[C@@H]1NC(=O)[C@H](Cc2ccc(O)cc2)NC(=O)[C@@H](C)NC(=O)[C@@H](Cc2ccc(O)cc2)NC(=O)CSC[C@@H](C(=O)N[C@@H](C(=O)N[C@H](Cc2ccccc2)C(=O)N[C@@H]2CCC3C4Cc5ccc(O)c6c5C3(CCN4C)[C@H]2O6)[C@@H](C)O)NC(=O)[C@H]([C@H](C)O)NC1=O` (stereo partly specified), in data set [2], the Ki came to 72 nM.

By Ki is commonly meant the dissociation constant of the complex between target and ligand, obtained from inhibition or displacement. By half-life is commonly meant the time in which the quantity being followed falls by half.

Source of the values: ChEMBL document CHEMBL5528033, “Peptide-Drug Conjugates: An Emerging Direction for the Next Generation of Peptide Therapeutics” (J Med Chem, 2024).
